Reference: patent US6251914A, “Cycloalkyl substituted imidazoles” (SmithKline Beecham Corporation, priority 1999, dated 2001)
Where a name gives a salt, the structure may show the parent alone.

Tested on: IL-1 and TNF
Experiment: not given
Conditions: cited from earlier work

| SMILES | inhibition of IL-1 and TNF |
| --- | --- |
| Fc1ccc(-c2nc3n(c2-c2ccncc2)CCS3)cc1 [SK&F 86002] | inhibiting IL-1 and TNF |
| C[S+]([O-])c1ccc(-c2nc(-c3ccncc3)c(-c3ccc(F)cc3)[nH]2)cc1 (stereo not drawn) [SB 203580] | inhibiting IL-1 and TNF |

Target: T1, CSBP2 (Homo sapiens, UniProt Q16539)
T1 construct: made in house; host or cells: yeast
Experiment: CSBP Kinase Assay (32P transfer to EGFR-derived peptide T669)
Assay type: biochemical
Conditions: 170 uM ATP, 0.4 mM T669 peptide, 30° C., 10 min; read-out: positive inhibitory activity, IC50 in CSBP kinase assay
Method: This assay measures the CSBP-catalyzed transfer of ^32 P from […] to threonine residue in an epidermal growth factor receptor (EGFR)-derived peptide (T669) with the following sequence: […] (residues 661-681). (See Gallagher et al., "Regulation of Stress Induced Cytokine Production by Pyridinyl Imidazoles: Inhibition of CSPB Kinase", BioOrganic & Medicinal Chemistry, to be published 1996).
Kinase reactions (total volume 30 ul) contain: 25 mM Hepes buffer, pH 7.5; 10 mM MgCl2; 170 uM ATP^(1); 10 uM Na ortho vanadate; 0.4 mM T669 peptide; and 20-80 ng of yeast-expressed purified CSBP2 (see Lee et al., Nature 300, n(72), 739-746 (December 1994)). Compounds (5 ul from [6×] stock^(2)) are pre-incubated with the enzyme and peptide for 20 min. on ice prior to starting the reactions with 32P/MgATP. Reactions are incubated at 30° C. for 10 min. and stopped by adding 10 ul of 0.3 M phosphoric acid. 32P-labeled peptide is separated on phosphocellulose (Wattman, p81) filters by spotting 30 ul reaction mixture. Filters are washed 3 times with 75 mM phosphoric acid followed by 2 washes with H2 O, and counted for 32P.
^(2) Compounds are usually dissolved in DMSO and are diluted in 25 mM HEPES buffer to get final concentration of DMSO of 0.17%.

T1 sequence (Q16539 whole entry): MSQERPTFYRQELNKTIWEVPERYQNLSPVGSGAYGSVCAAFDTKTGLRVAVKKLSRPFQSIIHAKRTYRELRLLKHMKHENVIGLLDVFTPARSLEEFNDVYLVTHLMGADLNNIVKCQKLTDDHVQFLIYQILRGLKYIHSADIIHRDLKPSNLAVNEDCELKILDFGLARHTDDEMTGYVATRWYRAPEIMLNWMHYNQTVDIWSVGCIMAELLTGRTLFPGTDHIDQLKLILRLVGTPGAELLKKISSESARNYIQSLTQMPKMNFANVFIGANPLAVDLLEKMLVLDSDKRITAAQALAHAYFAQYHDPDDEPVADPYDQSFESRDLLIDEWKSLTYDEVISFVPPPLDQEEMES

| IC50 | SMILES |
| --- | --- |
| < 50 µM | COc1nccc(-c2c(-c3ccc(F)cc3)ncn2C2CCCCC2)n1 [Example 12, 1-Cyclohexyl-4-(4-fluorophenyl)-5-(2-methoxypyrimidin-4-yl)imidazole] |
| < 50 µM | COc1nccc(-c2c(-c3ccc(F)cc3)ncn2C2CCCC2)n1 [Example 15, 1-Cyclopentyl-4-(4-fluorophenyl)-5-(2-methoxypyrimidin-4-yl)imidazole] |

Continued, molecule first:

| SMILES | IC50 |
| --- | --- |
| COc1nccc(-c2c(-c3ccc(F)cc3)ncn2C2CC2)n1 [Example 14, 1-Cyclopropyl-4-(fluorophenyl)-5-(2-methoxypyrimidin-4-yl)imidazole] | < 50 µM |
| CCOc1nccc(-c2c(-c3ccc(F)cc3)ncn2[C@H]2CC[C@H](O)CC2)n1 [Example 9, trans-1-(4-Hydroxycyclohexyl)-4-(4-fluorophenyl)-5-[(2-ethoxy)pyrimidine-4-yl]imidazole] | < 50 µM |

Tested on: IL-6, IL-8, GM-CSF and COX-2
Experiment: not given
Conditions: cited from earlier work

| SMILES | synthesis of pro-inflammatory proteins including IL-6, IL-8, GM-CSF and COX-2 |
| --- | --- |
| Fc1ccc(-c2nc3n(c2-c2ccncc2)CCS3)cc1 [SK&F 86002] | decrease the synthesis |
| C[S+]([O-])c1ccc(-c2nc(-c3ccncc3)c(-c3ccc(F)cc3)[nH]2)cc1 (stereo not drawn) [SB 203580] | decrease the synthesis |

Target: T2, p38 (Homo sapiens, UniProt Q16539)
T2 construct: made in house; host or cells: yeast
Experiment: CSBP Kinase Assay, minor variation (activated p38, T669 peptide, 96 well plate)
Assay type: biochemical
Conditions: 0.17 mM ATP, 0.67 mM T669 peptide, 24 nM p38, 37° C., 25 min; read-out: positive inhibitory activity, IC50 in kinase assay (minor variation)
Method: A minor variation of the above assay is shown below:
Reactions were carried in round bottom 96 well plate (from Corning) in a […]. Reactions contained (in final concentration): 25 mM Hepes, pH7.5; 8 mM MgCl2; 0.17 mM ATP (the Km[ATP] of p38 (see Lee et al., Nature 300, n72 pg 639-746 (December 1994)); 2.5 uCi of [g-32P]ATP; 0.2 mM sodium orthovanadate; 1 mM DTT; 0.1% BSA; 10% glycerol; 0.67 mM T669 peptide; and 24 nM of yeast-expressed, activated and purified p38. Reactions were initiated by the addition of [gamma-32P]Mg/ATP, and incubated for 25 min. at 37° C. Inhibitors (dissolved in DMSO) were incubated with the reaction mixture on ice for 30 minutes prior to adding the 32P-ATP. Final DMSO concentration was 0.16%. Reactions were terminated by adding 10 ul of 0.3 M phosphoric acid, and phosphorylated peptide was isolated from the reactions by capturing it on p81 phosphocellulose filters. Filters were washed with 75 mM phosphoric acids, and incorporated 32P was quantified using beta scintillation counter. Under these conditions, the specific activity of p38 was 400-450 pmol/pmol enzyme, and the activity was linear for up to 2 hr of incubation. The kinase activity values were obtained after subtracting values generated in the absence of substrate which were 10-15% of total values.

T2 sequence (Q16539 whole entry): as above

| IC50 | SMILES |
| --- | --- |
| < 50 µM | COc1nccc(-c2c(-c3ccc(F)cc3)ncn2C2CCC2)n1 [Example 13, 1-Cyclobutyl-4-(4-fluorophenyl)-5-(2-methoxypyrimidin-4-yl)imidazole] |
| < 50 µM | COc1nccc(-c2c(-c3ccc(F)cc3)ncn2C2CCCCCC2)n1 [Example 16, 1-Cycloheptyl-4-(4-fluorophenyl)-5-(2-methoxypyrimidin-4-yl)imidazole] |

The next lines start with the molecule.

| SMILES | IC50 |
| --- | --- |
| COc1nccc(-c2c(-c3ccc(F)cc3)ncn2[C@H]2CC[C@H](OCCN(C)C)CC2)n1 [Example 18, trans-4-(4-Fuorophenyl)-1-[4-(2-(N,N-dimethylamino)ethoxy)cyclohexyl]-5-[(2-methoxy)pyrimidine-4-yl]-imidazole hydrochloride] | < 50 µM |
| COc1nccc(-c2c(-c3ccc(F)cc3)ncn2[C@H]2CC[C@H](OCSC)CC2)n1 [Example 17, trans-4-(4-Fluorophenyl)-5-(2-methoxypyrimidin-4-yl)-1-[4-(methylthiomethoxy)cyclohexyl]imidazole] | < 50 µM |
